# Measurements taken from patent publication US20260234125A1, “CYCLIC AMINE DERIVATIVE, AND COMPOSITION AND USE THEREOF” (SHANGHAI JINGXIN BIOMEDICAL CO., LTD., priority 2023, published 2026).
# Molecular target: T1, human Apo(a) protein (Homo sapiens, UniProt P08519)
# T1 construct: biotin (biotinylated)
# Assay: BLI affinity of compounds to Apo(a)
# Format: binding
# Settings: biotinylated apolipoprotein(a) on SA sensor, compound 100 nM
# Description: • 1. Experimental purpose: The purpose of this test is to test the affinity of the compounds of the present disclosure to Apo(a) • 2. Experimental instruments and reagents: • Molecular interaction analyzer (ForteBio Octet red 96e), • SA sensor (ForteBio), • 96-well plates were purchased from Greine, • 3. Experimental methods:
# Prepared two 96-well plates, one as a sample plate and another as a pre-wett plate, curing buffer was added to a 200 μL well of the pre-wet plate, and the SA sensor was pre-wetted for at least ten minutes. All reagents and samples were added to another black sample plate, after the sample addition was completed, the sensor plate and the sample plate were placed into the ForteBio Octet red 96e instrument. The program was set up in sequence for detection. The experimental temperature was set to 30° C. and the acquisition frequency was set at 5.0 Hz. The biosensor was run in 1×PBS, pH7.4, 0.02% Tween-20, 0.1% BSA in the first column for 60 seconds, which was the baseline step. Biotinylated apolipoprotein(a) was diluted to 40 μg/ml with 1×PBS, pH7.4, 0.02% Tween-20, 0.1% BSA, and added to the second column, where it was run for a period of time until the amount of curing on the sensor reaches 2.0 nm. The biosensor was run in 1×PBS, pH7.4, 0.02% Tween-20, 0.1% BSA in the third column for 60 seconds, which was the baseline step. The compound was diluted to 100 nM with 1×PBS, pH7.4, 0.02% Tween-20, 0.1% BSA, and added to the fourth column, where the sensor was run for 60 seconds. The sensor was run in 1×PBS, pH7.4, 0.02% Tween-20, 0.1% BSA in the third column for 120 seconds, during this process, the compound dissociated from the sensor. The affinity constant KD reflects the size of the interaction binding ability. When the concentration of the analyte is at KD, the equilibrium signal Req is half of Rmax.
# T1 sequence (P08519 20-2040): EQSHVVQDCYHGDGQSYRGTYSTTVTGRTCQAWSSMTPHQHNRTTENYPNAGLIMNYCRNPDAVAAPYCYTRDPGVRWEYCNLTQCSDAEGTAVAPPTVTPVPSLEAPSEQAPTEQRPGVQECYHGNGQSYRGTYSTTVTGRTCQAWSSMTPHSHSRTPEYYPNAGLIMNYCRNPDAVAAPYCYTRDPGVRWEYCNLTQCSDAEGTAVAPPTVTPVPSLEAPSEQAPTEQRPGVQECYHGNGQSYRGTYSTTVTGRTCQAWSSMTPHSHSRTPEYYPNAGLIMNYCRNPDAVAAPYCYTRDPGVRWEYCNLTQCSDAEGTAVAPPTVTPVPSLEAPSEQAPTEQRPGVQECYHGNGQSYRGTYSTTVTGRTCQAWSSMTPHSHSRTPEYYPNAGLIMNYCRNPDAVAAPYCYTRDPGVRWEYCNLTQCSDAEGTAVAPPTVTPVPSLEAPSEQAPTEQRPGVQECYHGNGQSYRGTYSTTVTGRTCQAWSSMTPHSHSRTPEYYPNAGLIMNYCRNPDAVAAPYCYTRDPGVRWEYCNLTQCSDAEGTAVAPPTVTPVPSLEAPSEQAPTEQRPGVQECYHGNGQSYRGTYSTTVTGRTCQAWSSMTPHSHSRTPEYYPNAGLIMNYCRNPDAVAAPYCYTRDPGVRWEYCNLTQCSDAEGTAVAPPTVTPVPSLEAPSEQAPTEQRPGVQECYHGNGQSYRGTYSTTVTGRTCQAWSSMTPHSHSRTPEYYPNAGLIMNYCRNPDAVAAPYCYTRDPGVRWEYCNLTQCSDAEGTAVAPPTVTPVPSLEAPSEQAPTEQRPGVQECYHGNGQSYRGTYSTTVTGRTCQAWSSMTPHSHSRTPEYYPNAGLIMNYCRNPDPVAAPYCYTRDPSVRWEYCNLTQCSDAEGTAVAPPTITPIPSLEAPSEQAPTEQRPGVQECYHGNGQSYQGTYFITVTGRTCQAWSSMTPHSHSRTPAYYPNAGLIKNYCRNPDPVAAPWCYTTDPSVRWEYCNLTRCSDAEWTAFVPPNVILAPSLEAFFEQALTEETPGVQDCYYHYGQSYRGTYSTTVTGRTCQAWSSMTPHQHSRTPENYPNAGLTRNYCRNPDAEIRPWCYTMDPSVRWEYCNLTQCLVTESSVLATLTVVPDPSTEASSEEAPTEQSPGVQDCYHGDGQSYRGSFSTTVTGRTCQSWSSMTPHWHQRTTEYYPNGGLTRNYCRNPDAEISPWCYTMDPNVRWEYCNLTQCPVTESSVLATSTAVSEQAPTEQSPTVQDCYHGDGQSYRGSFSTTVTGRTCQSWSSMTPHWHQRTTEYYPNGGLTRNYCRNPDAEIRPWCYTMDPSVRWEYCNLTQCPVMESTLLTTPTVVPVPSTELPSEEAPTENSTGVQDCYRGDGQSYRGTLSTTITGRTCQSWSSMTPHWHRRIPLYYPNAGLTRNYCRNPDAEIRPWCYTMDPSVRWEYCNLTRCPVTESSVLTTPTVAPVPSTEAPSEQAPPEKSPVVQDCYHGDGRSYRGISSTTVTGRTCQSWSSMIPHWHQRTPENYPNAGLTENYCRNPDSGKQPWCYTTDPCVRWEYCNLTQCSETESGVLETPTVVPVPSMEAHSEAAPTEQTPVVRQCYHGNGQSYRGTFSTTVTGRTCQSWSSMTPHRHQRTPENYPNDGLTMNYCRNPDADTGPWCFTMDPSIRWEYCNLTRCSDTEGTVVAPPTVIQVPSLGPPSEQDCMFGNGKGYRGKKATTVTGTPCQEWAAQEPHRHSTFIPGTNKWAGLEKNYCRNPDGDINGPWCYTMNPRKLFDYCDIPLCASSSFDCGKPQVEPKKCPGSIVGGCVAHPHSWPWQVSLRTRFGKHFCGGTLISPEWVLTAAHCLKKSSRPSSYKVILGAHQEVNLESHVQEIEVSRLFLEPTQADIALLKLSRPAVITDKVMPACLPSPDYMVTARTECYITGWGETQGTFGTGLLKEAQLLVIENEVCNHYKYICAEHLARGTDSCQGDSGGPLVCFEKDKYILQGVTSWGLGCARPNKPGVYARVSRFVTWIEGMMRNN
row,Kd [µM],Compound
1,0.0253,O=C(O)[C@@H](Cc1cccc(OCc2cc(COc3cccc(C[C@H](C(=O)O)[C@H]4CCNC4)c3)cc(COc3cccc(C[C@H](C(=O)O)[C@H]4CCNC4)c3)c2)c1)[C@H]1CCNC1 [Example 10]
2,0.0199,O=C(O)[C@@H](Cc1cccc(COC2CC(OCc3cccc(C[C@H](C(=O)O)[C@H]4CCNC4)c3)CC(OCc3cccc(C[C@H](C(=O)O)[C@H]4CCNC4)c3)C2)c1)[C@H]1CCNC1 (some centres unmarked) [Example 6]
3,0.0142,O=C(O)[C@@H](Cc1cccc(CN(Cc2cccc(C[C@H](C(=O)O)[C@H]3CCNC3)c2)Cc2cccc(C[C@H](C(=O)O)[C@H]3CCNC3)c2)c1)C1CNC1 [Example 11]
4,0.00806,O=C(O)[C@@H](Cc1cccc(Oc2nc(Oc3cccc(C[C@H](C(=O)O)[C@H]4CCNC4)c3)nc(Oc3cccc(C[C@H](C(=O)O)[C@H]4CCNC4)c3)n2)c1)[C@H]1CCNC1 [Example 7]
5,0.0187,O=C(NCCN(CCNC(=O)c1cccc(C[C@H](C(=O)O)[C@H]2CCNC2)c1)CCNC(=O)c1cccc(C[C@H](C(=O)O)[C@H]2CCNC2)c1)c1cccc(C[C@H](C(=O)O)[C@H]2CCNC2)c1 [Example 8]
